Results taken from US11814341B2, “Non-peptidic cell-penetrating motifs” (Ohio State Innovation Foundation, priority 2018, dated 2023).

Key:
HeLa cells [1] = test: MTT viability assay, anti-cancer activity of Hsp90 inhibitors; type: cell-based; settings: 24 h
HeLa cells [2] = test: JC-10 mitochondrial membrane potential assay; settings: 20 μM, 24 h; above the normal value
Protocol: Procedure: Mitochondria membrane potential assay. Experiments were carried out by using JC-10 Mitochondrial Membrane Potential Assay kit (Abcam, ab112134) according to the manufacturer's manual. Briefly, HeLa cells (2×10^4 cells/well) were seeded in a 96-well plate (black wall clear bottom) in 90 μL of DMEM containing 10% FBS and 1% penicillin/streptomycin and allowed to attach overnight. […] Without washing, cells were treated with 50 μL of a JC-10 dye solution (30 μM in buffer A) for 60 min. Fifty μL of buffer B was added and the fluorescence intensities at Ex/Em=490/520 nm and 540/590 nm were recorded on a microplate reader (Infinite M1000Pro).
CPM1-3 was next tested for a potential effect on mitochondrial membrane potential, a key indicator of cell health or injury. HeLa cells untreated or treated with CPM were labeled with JC-10, a dye molecule which emits green fluorescence inside the cytosol but red fluorescence inside the mitochondria. The ratio of green/red fluorescence (F520/F590) provides an indicator of the mitochondrial membrane potential.

COC1=C2C[C@@H](C)C[C@H](OC)[C@H](O)[C@@H](C)/C=C(\C)[C@H](OC(N)=O)[C@@H](OC)/C=C\C=C(/C)C(=O)NC(=CC1=O)C2=O [GA, geldanamycin]
maximum reduction in HeLa cell viability (HeLa cells [1]; 0-10 μM): ~40% | inhibitor concentration at which maximal inhibition was reached (HeLa cells [1]): 0.3 µM

p-trifluoromethoxy carbonyl cyanide phenyl hydrazone [FCCP]
increase in the F520/F590 ratio (HeLa cells [2]): up to 7 fold
